Broadly, the Km is the concentration of substrate that gives half-maximal velocity.

One assay has as its target AhR4DT-1 (Arachis hypogaea, UniProt A0A2H4GDC8). The assay is described as follows: AhR4DT-1 activity in microsomal fraction of N. benthamiana leaves. The following applies: for prenylation as prenyl acceptor: DMAPP as prenyl donor; for activity as prenyl donor: 300 μM donor, 100 μM resveratrol as prenyl acceptor; for AhR4DT-1 activity relative to Mg^2+: 10 mM divalent cation or EDTA.

The target in the next assay is AhR3′DT-1 (Arachis hypogaea, UniProt A0A2H4GDD0). The assay is described as follows: AhR3′DT-1 activity in microsomal fraction of N. benthamiana leaves. The following applies: for prenylation as prenyl acceptor: DMAPP as prenyl donor; for activity as prenyl donor: 300 μM donor, 100 μM resveratrol as prenyl acceptor; for AhR3′DT-1 activity relative to Mg^2+: 10 mM divalent cation or EDTA.
AhR3′DT-1, sequence (A0A2H4GDD0 entry or part of it): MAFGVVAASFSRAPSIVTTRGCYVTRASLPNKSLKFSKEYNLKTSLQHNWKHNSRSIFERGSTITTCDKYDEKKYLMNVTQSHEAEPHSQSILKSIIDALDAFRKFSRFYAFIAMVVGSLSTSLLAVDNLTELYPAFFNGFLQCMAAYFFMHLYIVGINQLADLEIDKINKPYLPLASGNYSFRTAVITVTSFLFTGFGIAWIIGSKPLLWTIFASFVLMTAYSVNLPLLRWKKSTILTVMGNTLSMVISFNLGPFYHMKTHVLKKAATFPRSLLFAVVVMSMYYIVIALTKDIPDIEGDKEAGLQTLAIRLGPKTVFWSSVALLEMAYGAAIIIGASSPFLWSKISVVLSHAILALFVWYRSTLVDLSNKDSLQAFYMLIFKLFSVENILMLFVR

Assay [1] relates to resveratrol prenyltransferase AhR4DT. The assay is described as follows: Prenyltransferase assay with microsomal fraction of elicited peanut hairy roots. The format is biochemical, Arachis hypogaea. The following applies: for prenylation as prenyl acceptor: 100 μM acceptor, 300 μM DMAPP; for resveratrol prenyltransferase activity relative to Mg^2+: 10 mM divalent cation.
In assay [2] the test system is peanut hairy root cultures. The assay is described as follows: Inhibitor feeding experiment in elicited peanut hairy root cultures. Type of assay: cell-based, Arachis hypogaea.
The next assay concerns resveratrol prenylation. The assay can be described thus: Screening for stilbenoid prenylation activity, crude extract of infiltrated N. benthamiana leaves. Type of assay: biochemical, Arachis hypogaea. To be noted: resveratrol and DMAPP as substrates. How it is done:
The engineered A. tumefaciens was grown in 5 mL of YEP medium, containing 50 mg/L of kanamycin (Sigma-Aldrich) and 30 mg/L of streptomycin (Sigma-Aldrich) for antibiotic selection, at 28° C. on an orbital shaker at 200 rpm. After cultivation for 2 days, 5 mL of bacterial suspension was inoculated into 50 mL of fresh YEP medium containing the antibiotics and allowed to grow for one additional day under the same conditions. Bacteria were pelleted by centrifugation, resuspended in 500 mL of induction medium containing 10 mM MgCl2 with 1 mM acetosyringone and incubated for 4 h at 28° C. under 200 rpm orbital shaking until their OD600 reached to a range from 0.5 to 0.6. Before the infiltration, 0.005% of Tween-20, 0.005% of Triton 100 and 0.005% of Silwet L-77 were added to bacterial cultures to enhance the efficiency of transformation in N. benthamiana leaves. Agrobacterium-mediated vacuum infiltration was performed on 4-week-old N. benthamiana following the methodology described previously (Medrano et al., 2009).
After 48 hours of post-infiltration, the “middle tier” of N. benthamiana leaves were harvested for prenylation activity screening. Five grams of leaf tissue (fresh weight) were grounded and homogenized using a mortar with pestle in 10 mL of extraction buffer containing 100 mM Tris-HCl (pH 7.6) and 10 mM dithiothreitol (DTT). […] The total protein concentration was determined by coomassie protein assay (Thermo Scientific) using bovine serum albumin as standard.
The reaction of crude cell-free extract of N. benthamiana leaves infiltrated with A. tumefaciens harboring the empty pBIB-Kan vector was used as control.

The mark [3] stands for this setting: 100 clomazone with elicitors, 72 h.
The mark [4] stands for this setting: 10 μM mevastatin, 72-h treatment.

AhR4DT-1, sequence (A0A2H4GDC8 entry or part of it): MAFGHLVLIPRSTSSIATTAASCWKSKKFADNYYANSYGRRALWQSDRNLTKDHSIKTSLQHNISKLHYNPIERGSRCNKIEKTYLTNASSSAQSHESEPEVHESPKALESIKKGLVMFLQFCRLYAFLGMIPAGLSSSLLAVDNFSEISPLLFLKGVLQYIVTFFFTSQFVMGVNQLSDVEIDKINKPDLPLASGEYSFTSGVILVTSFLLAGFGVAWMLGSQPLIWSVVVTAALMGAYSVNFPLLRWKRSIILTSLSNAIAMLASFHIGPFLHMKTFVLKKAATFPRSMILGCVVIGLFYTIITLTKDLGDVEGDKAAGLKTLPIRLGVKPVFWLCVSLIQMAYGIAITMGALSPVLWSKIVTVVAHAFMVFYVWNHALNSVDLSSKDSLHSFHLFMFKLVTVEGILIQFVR

`O=C1C[C@@H](c2ccc(O)cc2)Oc2cc(O)cc(O)c21` [naringenin]: the “prenylation as prenyl acceptor” value is “neither prenylated flavanone, prenylated flavone, nor prenylated isoflavone was detected” on AhR4DT-1 and “neither prenylated flavanone, prenylated flavone, nor prenylated isoflavone was detected” at AhR3′DT-1.

In the case of `CC(C)=CCC/C(C)=C/COP(=O)(O)OP(=O)(O)O` [GPP, geranyl pyrophosphate], the “activity as prenyl donor” value on AhR4DT-1 and on AhR3′DT-1 was “Neither AhR4DT-1 nor AhR3′DT-1 showed any detectable activity” each time.

Regarding `Oc1cc(O)cc(/C=C/c2ccc(O)cc2O)c1` [oxyresveratrol], the “prenylation as prenyl acceptor” value was “can selectively catalyze” on AhR4DT-1; “prenylated products of piceatannol and prenylated oxyresveratrol were identified” at AhR3′DT-1; “an isoprene unit was also transferred to oxyresveratrol” in assay [1].

In the case of `CC(C)=CCOP(=O)(O)OP(=O)(O)O` [DMAPP, dimethylallyl pyrophosphate], the “Vmax for AhR4DT-1 relative to AhR3′DT-1” value on AhR4DT-1 is recorded as 5.8 fold. Also, the Michaelis constant (Km) in assay [1] (microsomal fraction of peanut hairy roots, 28° C., 60 min, read-out: apparent km) was 91.9 ± 7.03 µM.

Turning to `[Mn+2]` [Mn^2+], the “AhR4DT-1 activity relative to Mg^2+” value on AhR4DT-1 was determined as 83.9%. At AhR3′DT-1, the “efficiency relative to Mg^2+” value was 2.1 fold and the “AhR3′DT-1 activity relative to Mg^2+” value stood at 210.3%. For the same molecule, the “resveratrol prenyltransferase activity relative to Mg^2+” value in assay [1] is 71.8%.

For `[Fe+2]` [Fe^2+], at AhR4DT-1, the “AhR4DT-1 activity relative to Mg^2+” value stood at 6.4%. Moreover, on AhR3′DT-1, the “AhR3′DT-1 activity relative to Mg^2+” value is 34.8%. Besides, the “resveratrol prenyltransferase activity relative to Mg^2+” value in assay [1] is given as 14.6%.

With `Oc1cc(O)cc(/C=C/c2ccccc2)c1` [pinosylvin], the “prenylation as prenyl acceptor” value was “can selectively catalyze” at AhR4DT-1, “no prenylated pinosylvin was produced” on AhR3′DT-1 and “catalyzed pinosylvin into chiricanine A” in assay [1].

`[Mg+2]` [Mg^2+]: the “AhR4DT-1 activity relative to Mg^2+” value at AhR4DT-1 is recorded as 100%. Moreover, on AhR3′DT-1, the “AhR3′DT-1 activity relative to Mg^2+” value is 100%. Besides, in assay [1], the “resveratrol prenyltransferase activity relative to Mg^2+” value worked out at 100%.

Take `[Ca+2]` [Ca^2+]: the “resveratrol prenyltransferase activity relative to Mg^2+” value in assay [1] turned out to be 0.9%.

Take `CC(C)=CCC/C(C)=C/CC/C(C)=C/COP(=O)(O)OP(=O)(O)O` [FPP, farnesyl pyrophosphate]: the “activity as prenyl donor” value at AhR4DT-1 and on AhR3′DT-1 was “Neither AhR4DT-1 nor AhR3′DT-1 showed any detectable activity” throughout.

As to `O=c1c(-c2ccc(O)cc2)coc2cc(O)cc(O)c12` [genistein], the “prenylation as prenyl acceptor” value is “neither prenylated flavanone, prenylated flavone, nor prenylated isoflavone was detected” on AhR4DT-1 and “neither prenylated flavanone, prenylated flavone, nor prenylated isoflavone was detected” on AhR3′DT-1.

For the molecule `CC1(C)CON(Cc2ccccc2Cl)C1=O` [clomazone], in assay [2] (10 μM and 100 μM clomazone), the “yields of prenylated stilbenoids compared to non-inhibitor group” value is “significantly lower yields of prenylated stilbenoids” and the “yields of resveratrol compared to non-inhibitor group” value is on record as “significantly higher yields of resveratrol”. In assay [2] (100 μM clomazone), this molecule came in with a piceatannol produced of 9.02 µM and a resveratrol produced of 845.7 µM. In addition, the “accumulation of arachidin-5 and arachidin-1” value in assay [2] (100 μM clomazone, 48-hour) is “almost completely inhibited”. In addition, the piceatannol concentration entry in assay [2] (100 μM clomazone, 72 h) is reported as “increased only slightly”. Moreover, in assay [2] (setting [3]), the yield of resveratrol came to 830.73 ± 25.83 µM and the “yield of resveratrol relative to non-inhibitor group” value is on record as 6.3 fold. The “effects on accumulation of resveratrol and inhibition of prenylated stilbenoids accumulation” value in assay [2] (clomazone 1 μM to 100 μM with elicitors) is “increased with the concentration of clomazone”. For the same molecule, the “micromolar increase of resveratrol relative to overall decrease of arachidin-5, -1, -2 and -3” value in assay [2] (clomazone with elicitors) is on record as “about 1.54 fold”. The “levels of all prenylated stilbenoids” value in assay [2] (clomazone, 24-h interval between 48- and 72-h time points) is recorded as “no significant increases”. Further, in assay [2] (different concentrations of clomazone, no elicitors), the “production of stilbenoids without elicitors” value is “none of these stilbenoids was detected”.

With `CC[C@H](C)C(=O)O[C@H]1CCC=C2C=C[C@H](C)[C@H](CC[C@@H]3C[C@@H](O)CC(=O)O3)[C@H]21` [mevastatin], the “yields of resveratrol, piceatannol and prenylated stilbenoids” value in assay [2] (10 μM mevastatin with elicitors) is reported as “no significant effect”. Besides, in assay [2] (setting [4]), the “increase in yield of arachidin-1” value came out at 41% and the “increase in yield of arachidin-5” value stood at 27%. In assay [2] (24-h interval between 48 and 72-h treatments), the “accumulation of arachidin-5, arachidin-1, arachidin-2 and arachidin-3” value is recorded as “did not inhibit the accumulation”. Besides, in assay [2] (mevastatin at 1, 10, or 100 μM with 100 μM MeJA and 9 g/L CD, preliminary experiments), the “levels of prenylated stilbenoids” value was “did not affect the levels of prenylated stilbenoids”.

For the molecule `CC(C)=CCC/C(C)=C/CC/C(C)=C/CC/C(C)=C/COP(=O)(O)OP(=O)(O)O` [GGPP, geranylgeranyl pyrophosphate], the “activity as prenyl donor” value at AhR4DT-1 and at AhR3′DT-1 was “Neither AhR4DT-1 nor AhR3′DT-1 showed any detectable activity” throughout.

As to `O=c1cc(-c2ccc(O)cc2)oc2cc(O)cc(O)c12` [apigenin], the “prenylation as prenyl acceptor” value on AhR4DT-1 was “neither prenylated flavanone, prenylated flavone, nor prenylated isoflavone was detected”; at AhR3′DT-1, “neither prenylated flavanone, prenylated flavone, nor prenylated isoflavone was detected”.

On to `Oc1cc(O)cc(/C=C/c2ccc(O)c(O)c2)c1` [piceatannol, 3,5,3′,4′-tetrahydroxy-trans-stilbene], for which the “Vmax for AhR4DT-1 relative to AhR3′DT-1” value on AhR4DT-1 came to 6.9 fold. Moreover, the “prenylation as prenyl acceptor” value at AhR4DT-1 is “can selectively catalyze”; on AhR3′DT-1, “prenylated products of piceatannol and prenylated oxyresveratrol were identified”; in assay [1] it was “catalyzed the synthesis of arachidin-5 as the predominant prenylated product”.

Take `O=C(O)CN(CCN(CC(=O)O)CC(=O)O)CC(=O)O` [EDTA]: the “AhR4DT-1 activity relative to Mg^2+” value on AhR4DT-1 is listed as “no activity was detected”. Further, the “AhR3′DT-1 activity relative to Mg^2+” value at AhR3′DT-1 was “no activity was detected”.

B1: AhR3′DT-3: stilbenoid prenyltransferase, GenBank KY565247 (protein, listed as Arachis hypogaea)
chain: MPFGLSASFLKSRSLHHHGWKFLKEREIHKQPLRNTRRALWNNNGKLSKEYCIKMQHNYWKNHCTNLKGGSMMSDDKFEKKYLVNATSKNSHDEPKKSQPILEFIKDGMDTFRQFSRLYAFFSFISSGLSSSLLAVDNLSNISPKMFLIGFLQFLIPNCIMFQYIVGVNQLADIEIDKINKPYLPLASGKYSLRNAIIIVASSLIMGFGSAWVLGSRPMFWCLVISTMLMTAYSVNLPLLRWKRSTILATLSLASSMTIGQHIAPFLHMKTVLKKALNYPRSLVFTVVVVSLFYTVISLAKDIPDIEGDKAAGHKTLAIHLGPRRVFWFCISLLQMTYGIAIIMGALSPILWSKIFTVVTHFIMSIILWYRANSVDLSNNDSLQSFYMAIFVFLSVENFLVLFVR
Take B1: the “activity level relative to AhR3′DT-1” value with resveratrol prenylation was found to be 17%.

B2: AhR3′DT-2: stilbenoid prenyltransferase, GenBank KY565246 (protein, listed as Arachis hypogaea)
chain: MPFGLSASFLKSRSFHHHGTRRALWNNNGKLSKEYCIKMQHNYWKNHCTNLKGGSMMSDDKFEKKYLVNATSKNSHDEPKKSQPILEFIKDGMDTFRQFSRLYAFFSFISSGLSSSLLAVDNLSNISPKMFLIGFLQFLIPNCIMFQYIVGVNQLADIEIDKINKPYLPLASGKYSLRNAIIIVASSLLMGFGSAWVLGSRPMFWCLVISTMLMTAYSVNLPLLRWKRSTILATLSLASSMTIGQHIAPFLHMKTVLKKALNYPRSLVFTVVVVSLFYTVISLAKDIPDIEGDKAAGHKTLAIHLGPRRVFWFCISLLQMTYGIAIIMGALSPILWSKIFTVVTHFIMSIILWYRANSVDLSNNDSLQSFYMAIFVFLSVENFLVLFVR
As to B2, the “activity level relative to AhR3′DT-1” value in the assay with resveratrol prenylation was determined as 18%.

B3: AhR3′DT-4: stilbenoid prenyltransferase, GenBank KY565248 (protein, listed as Arachis hypogaea)
chain: MASTSRLLLHASLPPPTTSISKTNSGSHAVIRSIWHNNGKYPKEKTCIETPLLLQHNQKHHYTCDQIKRKHFVKATHAQSKNEPEPQADSAKPIWNSIKDVMHTIQKFSVFYALIGLLSGILSSSLLAVEKLSDLSPTFFISMLQFMAAYSSMQLYTTGVNQLADIEIDKINKPYRPLASSKISFGGGLAIVAASLFMSFGLALMIGSKPLLWGLILIFILMTAYSVNLPFLRWKKSTILTLLSGVPTILTAYNLAPYLHMKTFVLKKPFIFTRSLAFTTVVMTFFYVVISLFKDIPDIEGDKKEGLQTLSIRLGPKRVFWLCISLLEMTYGIAIIMGLTSPFLWSKIFTVMAHAINAWILWFRANSVDLKSKEDFQSFYMFIFKLLYLENVLVLFVR
Take B3: the “activity level relative to AhR3′DT-1” value with resveratrol prenylation worked out at 5%.

The values above are taken from patent US11535856B2, “Stilbenoid prenyltransferases from plants” (Arkansas State University—Jonesboro, priority 2016, dated 2022).
